Legend:
OVX rats [1] = assay: OVX rat model on osteoporosis: biomechanical test of bone strength; assay type: in vivo; set-up: key to Effect on bone strength, Femor. Meta., vs 1,25D3 / Effect on bone strength, L3, vs 1,25D3 / Effect on bone strength, Femor. Dia., vs 1,25D3: <: less effect than the reference dose of 1,25D3 (0.25 ug/kg); <=: less or the same effect as the reference dose of 1,25D3 (0.25 ug/kg); =: same effect as the reference dose of 1,25D3 (0.25 ug/kg); =>: same or better effect as the reference dose of 1,25D3 (0.25 ug/kg); >: better effect than the reference dose of 1,25D3 (0.25 ug/kg); details: oral 28 days
Procedure: FIG. 2 is a graphic illustration of the biomechanical test of the lumbal vertebrae, L3. The vertebral body cylinder were tested along the proximal-distal axis in a materials testing machine (Alwetron TCT 5, Lorentzen and Wettre, Stockholm, Sweden) at a constant deformation rate of 2 mm/min. During compression, load-deformation curves were recorded and stored on a PC (ProLinea 4/33, Compaq, USA). Fmax is the maximum point on the load deforming curve.
The rats were treated according to the OVX rat model described herein, and wherein the animal groups received treatment according to the same scheme as for FIG. 1. A statistical analysis is shown in the graphic illustration, cf. description for FIG. 1.
(§1) Pharmacological Methods—OVX Rat Model on Osteoporosis
(§2) To study bone anabolic properties and the effects of the vitamin D analogues of the present invention in preventing or treating demineralisation of the skeleton in vivo, a 4 weeks OVX rat model was used:
(§3) An ovariectomized rat model (OVX model), orally dosed for 28 days is useful for screening of vitamin D analogues. In this model ovariectomy produces alterations in the cancellous network identical to those seen in the human skeleton during ageing and the menopause. Besides this the model and the following analyses can be performed under very standardised conditions. 1α,25(OH)2D3 is used as a reference compound.
(§4) Female Sprague Dawley rats weighing approximately 130 g (40–45 days old) were purchased from MB, Ejby, Denmark. The animals were fed a commercial diet and allowed free access to food and drinking water. The animals were split into groups receiving differential treatment.
(§5) The animals were anaesthetised and ovariectomized through a dorsal incision.
(§6) Treatment of OVX animals was started 2 weeks after ovariectomy.
(§7) The animals were dosed orally for 28 days. The oral dosage was by gavage 0.1 ml/100 g bodyweight. The bodyweight of each animal was recorded every day prior to oral dosing. On day 7, 14, 21 and 28 the animals were housed separately for 24 hours in metabolic cages for collection of urine. Urine was frozen at −20° C. for later calcium measurement.
Left and right femur, left and right tibia, lumbal vertebrae 3 and 4 (L3 and L4) were removed and cleaned for all soft- and connecting tissue. Left femur, left and right tibia and L4 were dried in an oven at 50–60° C. for at least 24 hours and immediately hereafter weighed. The bones were burned in an oven at 800° C. for 4 hours, dissolved in 1N HCl, and analysed for calcium content in a Hitachi 911 autoanalyser. Right femur and L3 were kept in 0.9% NaCl and frozen at −20° C. for later biomechanical testing performed by Jesper Skovhus Thomsen and Lis Mosekilde at Aarhus University, measuring various biomechanical parameters.
(§8) Effect of Compound 145 compared to the reference dose of 1,25(OH)2D3 (1,25D3) (0.25 μg/kg) and compared to the OVX control group (shown in %) are shown in Tables 1 to 4.

OVX rats [2] = assay: OVX rat model on osteoporosis: serum calcium; assay type: in vivo; set-up: key to Effect on serum calcium vs 1,25D3: <: less effect than the reference dose of 1,25D3 (0.25 ug/kg); <=: less or the same effect as the reference dose of 1,25D3 (0.25 ug/kg); =: same effect as the reference dose of 1,25D3 (0.25 ug/kg); =>: same or better effect as the reference dose of 1,25D3 (0.25 ug/kg); >: better effect than the reference dose of 1,25D3 (0.25 ug/kg); details: for Effect on serum calcium vs 1,25D3 / Effect on serum calcium vs Ovx contr: oral 28 days
Source text: as §1, §2, §3, §4, §5, §6, §7
At day 28 the animals were anaesthetised and 2 ml of blood was obtained either by heart puncture or from the orbital vein, after this the animals were euthanized by CO2. The serum fraction was then removed and frozen at −20° C. for later measurement of calcium, phosphorous and creatinine.
as §8

Effect on serum calcium vs 1,25D3 (OVX rats [2]; 1 μg/kg, MTR/16): No
Effect on serum calcium vs Ovx contr (OVX rats [2]; 1 μg/kg, MTR/16): 0%
Effect on serum calcium vs 1,25D3 (OVX rats [2]; 10 μg/kg, MTR/16): No
Effect on serum calcium vs Ovx contr (OVX rats [2]; 10 μg/kg, MTR/16): 3%
Effect on serum calcium vs 1,25D3 (OVX rats [2]; 10 μg/kg, MTR/23): <
Effect on serum calcium vs Ovx contr (OVX rats [2]; 10 μg/kg, MTR/23): 6%
Effect on serum calcium vs 1,25D3 (OVX rats [2]; 25 μg/kg, MTR/27): <
Effect on serum calcium vs Ovx contr (OVX rats [2]; 25 μg/kg, MTR/27): 11%
Effect on serum calcium vs 1,25D3 (OVX rats [2]; 50 μg/kg, MTR/23): No
Effect on serum calcium vs Ovx contr (OVX rats [2]; 50 μg/kg, MTR/23): 2%
Effect on serum calcium vs 1,25D3 (OVX rats [2]; 50 μg/kg, MTR/27): =
Effect on serum calcium vs Ovx contr (OVX rats [2]; 50 μg/kg, MTR/27): 18%
Effect on serum calcium vs 1,25D3 (OVX rats [2]; 75 μg/kg, MTR/27): =
Effect on serum calcium vs Ovx contr (OVX rats [2]; 75 μg/kg, MTR/27): 20%
Effect on serum calcium vs 1,25D3 (OVX rats [2]; 100 μg/kg, MTR/23): No
Effect on serum calcium vs Ovx contr (OVX rats [2]; 100 μg/kg, MTR/23): −5%
SMILES: C=C1C(=CC=C2CCCC3(C)C2CCC3C(C)CSc2ccc(C(C)(C)O)cc2)CC(O)CC1O [Compound 145, 1(S),3(R)-Dihydroxy-20(R)-(4-((1-hydroxy-1-methyl)ethyl)phenylthiomethyl)-9,10-seco-pregna-5(Z),7(E),10(19)-triene]
Effect on bone strength, Femor. Dia., vs 1,25D3 (OVX rats [1]; 1 μg/kg, MTR/16): <=
Effect on bone strength, Femor. Meta., vs 1,25D3 (OVX rats [1]; 1 μg/kg, MTR/16): <
Effect on bone strength, L3, vs 1,25D3 (OVX rats [1]; 1 μg/kg, MTR/16): <
Effect on bone strength, Femor. Dia., vs 1,25D3 (OVX rats [1]; 10 μg/kg, MTR/16): =
Effect on bone strength, Femor. Meta., vs 1,25D3 (OVX rats [1]; 10 μg/kg, MTR/16): =
Effect on bone strength, L3, vs 1,25D3 (OVX rats [1]; 10 μg/kg, MTR/16): >
Effect on bone strength, Femor. Dia., vs 1,25D3 (OVX rats [1]; 10 μg/kg, MTR/23): <=
Effect on bone strength, Femor. Dia., vs Ovx contr (OVX rats [1]; 10 μg/kg, MTR/23): −5%
Effect on bone strength, Femor. Meta., vs 1,25D3 (OVX rats [1]; 10 μg/kg, MTR/23): <
Effect on bone strength, Femor. Meta., vs Ovx contr (OVX rats [1]; 10 μg/kg, MTR/23): 6%
Effect on bone strength, L3, vs 1,25D3 (OVX rats [1]; 10 μg/kg, MTR/23): =
Effect on bone strength, L3, vs Ovx contr (OVX rats [1]; 10 μg/kg, MTR/23): 23%
Effect on bone strength, Femor. Dia., vs 1,25D3 (OVX rats [1]; 25 μg/kg, MTR/27): >
Effect on bone strength, Femor. Dia., vs Ovx contr (OVX rats [1]; 25 μg/kg, MTR/27): 9%
Effect on bone strength, Femor. Meta., vs 1,25D3 (OVX rats [1]; 25 μg/kg, MTR/27): >
Effect on bone strength, Femor. Meta., vs Ovx contr (OVX rats [1]; 25 μg/kg, MTR/27): 39%
Effect on bone strength, L3, vs 1,25D3 (OVX rats [1]; 25 μg/kg, MTR/27): <=
Effect on bone strength, L3, vs Ovx contr (OVX rats [1]; 25 μg/kg, MTR/27): 27%
Effect on bone strength, Femor. Dia., vs 1,25D3 (OVX rats [1]; 50 μg/kg, MTR/23): =
Effect on bone strength, Femor. Dia., vs Ovx contr (OVX rats [1]; 50 μg/kg, MTR/23): −1%
Effect on bone strength, Femor. Meta., vs 1,25D3 (OVX rats [1]; 50 μg/kg, MTR/23): >
Effect on bone strength, Femor. Meta., vs Ovx contr (OVX rats [1]; 50 μg/kg, MTR/23): 43%
Effect on bone strength, L3, vs 1,25D3 (OVX rats [1]; 50 μg/kg, MTR/23): >
Effect on bone strength, L3, vs Ovx contr (OVX rats [1]; 50 μg/kg, MTR/23): 45%
Effect on bone strength, Femor. Dia., vs 1,25D3 (OVX rats [1]; 50 μg/kg, MTR/27): >
Effect on bone strength, Femor. Dia., vs Ovx contr (OVX rats [1]; 50 μg/kg, MTR/27): 5%
Effect on bone strength, Femor. Meta., vs 1,25D3 (OVX rats [1]; 50 μg/kg, MTR/27): >
Effect on bone strength, Femor. Meta., vs Ovx contr (OVX rats [1]; 50 μg/kg, MTR/27): 31%
Effect on bone strength, L3, vs 1,25D3 (OVX rats [1]; 50 μg/kg, MTR/27): <
Effect on bone strength, L3, vs Ovx contr (OVX rats [1]; 50 μg/kg, MTR/27): 22%
Effect on bone strength, Femor. Dia., vs 1,25D3 (OVX rats [1]; 75 μg/kg, MTR/27): >
Effect on bone strength, Femor. Dia., vs Ovx contr (OVX rats [1]; 75 μg/kg, MTR/27): 4%
Effect on bone strength, Femor. Meta., vs 1,25D3 (OVX rats [1]; 75 μg/kg, MTR/27): >>
Effect on bone strength, Femor. Meta., vs Ovx contr (OVX rats [1]; 75 μg/kg, MTR/27): 50%
Effect on bone strength, L3, vs 1,25D3 (OVX rats [1]; 75 μg/kg, MTR/27): =
Effect on bone strength, L3, vs Ovx contr (OVX rats [1]; 75 μg/kg, MTR/27): 38%
Effect on bone strength, Femor. Dia., vs 1,25D3 (OVX rats [1]; 100 μg/kg, MTR/23): =
Effect on bone strength, Femor. Dia., vs Ovx contr (OVX rats [1]; 100 μg/kg, MTR/23): −3%
Effect on bone strength, Femor. Meta., vs 1,25D3 (OVX rats [1]; 100 μg/kg, MTR/23): =
Effect on bone strength, Femor. Meta., vs Ovx contr (OVX rats [1]; 100 μg/kg, MTR/23): 21%
Effect on bone strength, L3, vs 1,25D3 (OVX rats [1]; 100 μg/kg, MTR/23): >
Effect on bone strength, L3, vs Ovx contr (OVX rats [1]; 100 μg/kg, MTR/23): 37%
calcaemic effect (adverse effect) compared to 1,25D3 (OVX rats [2]; summary of Tables 1 to 4): reduced

From patent US7071178B2, “Use of vitamin D-derivatives in the treatment of osteoporosis and related bone disorders, as well as novel vitamin D3-derivatives” (Leo Pharmaceutical Products, Ltd., priority 2000, dated 2006)
